Results taken from publication PMC5347771 (Oncotarget, 2016).
pKd: −log10 of the molar value.

How the values were obtained:
AXL = target: T1, AXL (Homo sapiens, UniProt P30530); assay: KINOMEscan competition binding (DiscoveRx); enzyme IC50 […] also measured (Reaction Biology)
T1 sequence (P30530 26-894): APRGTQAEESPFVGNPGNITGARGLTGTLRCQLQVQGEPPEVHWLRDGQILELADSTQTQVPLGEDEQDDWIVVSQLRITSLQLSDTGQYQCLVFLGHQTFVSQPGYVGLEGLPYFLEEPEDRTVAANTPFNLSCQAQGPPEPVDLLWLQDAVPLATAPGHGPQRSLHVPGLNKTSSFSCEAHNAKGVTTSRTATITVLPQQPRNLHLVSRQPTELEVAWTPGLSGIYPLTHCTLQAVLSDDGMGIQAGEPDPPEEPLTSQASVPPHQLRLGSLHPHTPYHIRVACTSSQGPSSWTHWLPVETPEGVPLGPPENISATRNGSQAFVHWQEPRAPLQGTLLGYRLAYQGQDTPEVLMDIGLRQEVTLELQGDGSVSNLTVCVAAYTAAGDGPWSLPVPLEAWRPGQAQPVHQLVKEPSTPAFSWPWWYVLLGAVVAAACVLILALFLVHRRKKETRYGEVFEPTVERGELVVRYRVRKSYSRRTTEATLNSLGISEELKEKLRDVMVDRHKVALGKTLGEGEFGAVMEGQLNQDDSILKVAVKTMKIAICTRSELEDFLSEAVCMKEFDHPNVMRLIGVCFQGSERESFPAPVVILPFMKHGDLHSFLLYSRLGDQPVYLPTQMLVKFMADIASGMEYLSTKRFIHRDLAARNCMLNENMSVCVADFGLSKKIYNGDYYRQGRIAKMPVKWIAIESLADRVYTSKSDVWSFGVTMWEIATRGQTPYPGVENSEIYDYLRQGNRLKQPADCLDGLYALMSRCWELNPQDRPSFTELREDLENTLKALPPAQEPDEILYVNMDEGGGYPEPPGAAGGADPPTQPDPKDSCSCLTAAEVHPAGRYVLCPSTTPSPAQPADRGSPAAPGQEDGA

TYRO-3 = target: T2, TYRO-3 (Homo sapiens, UniProt Q06418); assay: as above
T2 construct: gene TYRO3
T2 sequence (Q06418 41-890): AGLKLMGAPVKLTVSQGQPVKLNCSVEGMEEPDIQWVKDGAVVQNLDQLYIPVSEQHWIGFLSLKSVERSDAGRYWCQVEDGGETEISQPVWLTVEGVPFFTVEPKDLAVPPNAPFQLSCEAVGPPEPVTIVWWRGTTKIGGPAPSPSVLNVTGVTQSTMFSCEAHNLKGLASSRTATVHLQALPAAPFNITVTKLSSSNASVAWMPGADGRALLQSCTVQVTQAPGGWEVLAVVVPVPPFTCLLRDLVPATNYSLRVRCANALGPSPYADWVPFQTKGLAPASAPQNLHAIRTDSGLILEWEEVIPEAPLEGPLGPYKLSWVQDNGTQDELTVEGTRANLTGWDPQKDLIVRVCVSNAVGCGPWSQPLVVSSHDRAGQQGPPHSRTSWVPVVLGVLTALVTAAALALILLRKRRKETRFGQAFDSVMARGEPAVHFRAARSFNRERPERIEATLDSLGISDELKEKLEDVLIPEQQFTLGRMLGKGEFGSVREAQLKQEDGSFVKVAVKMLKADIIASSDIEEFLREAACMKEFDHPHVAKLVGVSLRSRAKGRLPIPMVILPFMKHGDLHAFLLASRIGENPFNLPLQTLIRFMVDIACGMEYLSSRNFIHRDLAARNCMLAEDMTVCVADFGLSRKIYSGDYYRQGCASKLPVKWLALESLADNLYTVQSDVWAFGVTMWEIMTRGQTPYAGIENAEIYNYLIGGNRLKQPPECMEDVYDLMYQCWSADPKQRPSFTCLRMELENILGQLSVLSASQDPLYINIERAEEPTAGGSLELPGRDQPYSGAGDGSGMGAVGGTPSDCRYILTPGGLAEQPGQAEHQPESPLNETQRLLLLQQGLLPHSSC

With `NC(=O)Nc1cc(-c2cccc(F)c2)sc1C(=O)N[C@H]1CCCNC1` [DN10764, (S)-5-(3-fluorophenyl)-N-(piperidin-3-yl)-3-ureidothiophene-2-carboxamide] the pKd (AXL) was 7.59 and the pKd (TYRO-3) was 5.98.
